One block for each compound: values may come before it. Calls of active or inactive are those of the source. No cut-off for these calls is given here.
Key:
MDA-MB-231 [1] = experiment: Cytotoxicity against human MDA-MB-231 cells; type: functional, cell-based
Cytochrome P450 3A4 = Cytochrome P450 3A4 (Homo sapiens, UniProt P08684); experiment: Inhibition of CYP3A4 (unknown origin); type: ADME
[2] = Toxicity in mouse xenografted with human MDA-MB-231 cells assessed as inflammation around injection site at 3 mg/kg, iv after 6 days; type: organism-based; conditions: in vivo, 144 h, time 6 day
[3] = Stability in human microsomes assessed as parent compound remaining at 60 mins; type: ADME, Microsome; conditions: read-out: Stabilty
[4] = Stability in dog microsomes assessed as parent compound remaining at 60 mins; type: ADME, Canis lupus familiaris, Microsome; conditions: read-out: Stabilty
[5] = Stability in rat microsomes assessed as parent compound remaining at 60 mins; type: ADME, Microsome; conditions: read-out: Stabilty
[6] = Stability in mouse microsomes assessed as parent compound remaining at 60 mins; type: ADME, Microsome; conditions: read-out: Stabilty
Cytochrome P450 1A2 = target: T1, Cytochrome P450 1A2 (Homo sapiens, UniProt P05177); experiment: Inhibition of CYP1A2 (unknown origin); type: ADME
T1 sequence (P05177 whole entry): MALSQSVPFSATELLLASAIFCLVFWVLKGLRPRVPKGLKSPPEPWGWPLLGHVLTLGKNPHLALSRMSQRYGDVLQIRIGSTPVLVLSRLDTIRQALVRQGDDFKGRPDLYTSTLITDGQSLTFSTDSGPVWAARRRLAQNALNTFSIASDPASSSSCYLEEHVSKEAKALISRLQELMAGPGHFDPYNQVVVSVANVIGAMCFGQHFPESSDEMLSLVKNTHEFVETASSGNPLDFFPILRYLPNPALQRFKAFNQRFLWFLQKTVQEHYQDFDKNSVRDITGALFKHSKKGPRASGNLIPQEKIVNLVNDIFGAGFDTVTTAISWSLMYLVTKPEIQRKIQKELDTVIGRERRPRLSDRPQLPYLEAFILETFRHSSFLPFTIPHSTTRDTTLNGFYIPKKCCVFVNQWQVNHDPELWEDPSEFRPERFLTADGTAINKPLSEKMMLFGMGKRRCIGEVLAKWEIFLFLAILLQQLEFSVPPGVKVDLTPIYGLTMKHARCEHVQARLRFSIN

Cytochrome P450 2C9 = Cytochrome P450 2C9 (Homo sapiens, UniProt P11712); experiment: Inhibition of CYP2C9 (unknown origin); type: ADME
Cytochrome P450 2C19 = Cytochrome P450 2C19 (Homo sapiens, UniProt P33261); experiment: Inhibition of CYP2C19 (unknown origin); type: ADME
Cytochrome P450 2D6 = Cytochrome P450 2D6 (Homo sapiens, UniProt P10635); experiment: Inhibition of CYP2D6 (unknown origin); type: ADME
[7] = target: T2, E3 ubiquitin-protein ligase XIAP (Homo sapiens, UniProt P98170); experiment: Binding affinity to human XIAP-BIR3 (241 to 356 residues)
[8] = target: T2, E3 ubiquitin-protein ligase XIAP; experiment: Antagonist activity at XIAP in human MDA-MB-231 cells assessed as fold change in Caspase-9 activation at 1 nM; type: cell-based; conditions: filed as antagonist
[9] = target: T2, E3 ubiquitin-protein ligase XIAP; experiment: Antagonist activity at XIAP in human MDA-MB-231 cells assessed as fold change in Caspase-3 activation at 1 nM; type: cell-based; conditions: filed as antagonist
MDA-MB-468 = experiment: Cytotoxicity against human MDA-MB-468 cells; type: functional, cell-based
MCF7 = experiment: Cytotoxicity against human MCF7 cells; type: functional, cell-based
OVCAR-3 = experiment: Cytotoxicity against human OVCAR-3 cells; type: functional, cell-based
BXPC-3 = experiment: Cytotoxicity against human BxPC3 cells; type: functional, cell-based
PANC-1 = experiment: Cytotoxicity against human PANC-1 cells; type: functional, cell-based
MIA PaCa-2 = experiment: Cytotoxicity against human MIA PaCa-2 cells; type: functional, cell-based
J82 = experiment: Cytotoxicity against human J82 cells; type: functional, cell-based
HS27 = experiment: Cytotoxicity against human HS27 cells; type: cell-based
[10] = Toxicity in mouse xenografted with human MDA-MB-231 cells assessed as reduction in weight at 3 mg/kg, iv administered for 14 days and measured after 30 days; type: organism-based; conditions: in vivo, 336 h, time 14 day
MDA-MB-231 [11] = experiment: Antitumour activity against in human MDA-MB-231 cells xenografted in mouse assessed as reduction in tumour burdens at 3 mg/kg, iv administered for 14 days and measured after 30 days; type: functional, organism-based; conditions: time 14.0 day
MDA-MB-231 [12] = experiment: Cytotoxicity against human MDA-MB-231 cells assessed as cell viability at 1 nM (reference value: 98%); type: functional; conditions: read-out: Activity
MDA-MB-231 [13] = experiment: Cytotoxicity against human MDA-MB-231 cells assessed as cell viability at 2 nM (reference value: 98%); type: functional; conditions: read-out: Activity
MDA-MB-231 [14] = experiment: Cytotoxicity against human MDA-MB-231 cells assessed as cell viability at 5 nM (reference value: 98%); type: functional; conditions: read-out: Activity
[15] = target: T2, E3 ubiquitin-protein ligase XIAP; experiment: Induction of degradation of XIAP-BIR3 domain in human MDA-MB-231 cells; type: cell-based; conditions: dose 1-5 nM
[16] = target: Baculoviral IAP repeat-containing protein 2 (Homo sapiens) (UniProt Q13490); experiment: Induction of degradation of cIAP1-BIR3 domain in human MDA-MB-231 cells; type: cell-based; conditions: dose 1-5 nM
[17] = target: Baculoviral IAP repeat-containing protein 3 (Homo sapiens) (UniProt Q13489); experiment: Induction of degradation of cIAP2-BIR3 domain in human MDA-MB-231 cells; type: cell-based; conditions: dose 1-5 nM
Chain of Baculoviral IAP repeat-containing protein 3 (Homo sapiens) (Q13489 whole entry, the tested form may be a part): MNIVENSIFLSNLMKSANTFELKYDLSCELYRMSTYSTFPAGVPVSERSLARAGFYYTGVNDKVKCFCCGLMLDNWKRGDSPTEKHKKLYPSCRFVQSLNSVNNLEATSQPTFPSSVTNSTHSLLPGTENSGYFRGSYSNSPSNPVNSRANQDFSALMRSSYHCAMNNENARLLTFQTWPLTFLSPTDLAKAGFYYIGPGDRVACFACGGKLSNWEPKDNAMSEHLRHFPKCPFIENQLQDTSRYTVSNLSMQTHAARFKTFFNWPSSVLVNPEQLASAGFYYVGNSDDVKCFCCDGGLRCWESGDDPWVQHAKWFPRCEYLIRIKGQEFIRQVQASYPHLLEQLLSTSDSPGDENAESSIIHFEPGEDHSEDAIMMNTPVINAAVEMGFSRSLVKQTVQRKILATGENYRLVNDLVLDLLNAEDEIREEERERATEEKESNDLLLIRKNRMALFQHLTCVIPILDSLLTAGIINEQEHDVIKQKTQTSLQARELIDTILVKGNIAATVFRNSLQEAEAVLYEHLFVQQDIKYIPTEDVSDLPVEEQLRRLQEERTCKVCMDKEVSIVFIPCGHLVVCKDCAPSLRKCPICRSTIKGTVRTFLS

Chain of Cytochrome P450 3A4 (P08684 whole entry): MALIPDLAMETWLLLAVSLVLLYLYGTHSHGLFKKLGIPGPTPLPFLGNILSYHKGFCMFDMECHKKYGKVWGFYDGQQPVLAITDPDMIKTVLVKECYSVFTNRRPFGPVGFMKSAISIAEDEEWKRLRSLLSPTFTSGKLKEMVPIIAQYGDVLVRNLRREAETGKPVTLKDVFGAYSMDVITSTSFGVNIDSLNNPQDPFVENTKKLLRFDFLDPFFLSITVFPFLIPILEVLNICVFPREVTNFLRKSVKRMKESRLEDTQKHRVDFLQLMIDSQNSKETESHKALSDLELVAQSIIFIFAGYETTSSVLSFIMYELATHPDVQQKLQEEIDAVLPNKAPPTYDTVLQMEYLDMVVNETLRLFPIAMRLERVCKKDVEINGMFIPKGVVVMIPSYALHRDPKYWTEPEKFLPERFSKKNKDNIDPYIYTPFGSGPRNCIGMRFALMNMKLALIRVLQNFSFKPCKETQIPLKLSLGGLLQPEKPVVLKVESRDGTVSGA
T2 sequence (P98170 whole entry, the tested form may be a part): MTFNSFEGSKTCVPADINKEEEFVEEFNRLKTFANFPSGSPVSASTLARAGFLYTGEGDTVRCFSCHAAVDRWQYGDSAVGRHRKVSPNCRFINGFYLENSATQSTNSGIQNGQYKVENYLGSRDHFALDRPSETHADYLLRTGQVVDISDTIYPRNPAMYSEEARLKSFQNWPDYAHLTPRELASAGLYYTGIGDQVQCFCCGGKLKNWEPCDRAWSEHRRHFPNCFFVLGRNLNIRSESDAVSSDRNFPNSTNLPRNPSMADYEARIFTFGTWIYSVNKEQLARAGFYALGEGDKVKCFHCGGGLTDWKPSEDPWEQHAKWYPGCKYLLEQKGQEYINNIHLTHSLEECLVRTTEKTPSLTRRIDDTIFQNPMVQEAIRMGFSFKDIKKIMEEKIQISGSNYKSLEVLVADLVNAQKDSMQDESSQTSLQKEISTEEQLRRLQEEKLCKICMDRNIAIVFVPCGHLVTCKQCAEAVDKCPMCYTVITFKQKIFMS
Chain of Cytochrome P450 2C19 (P33261 whole entry): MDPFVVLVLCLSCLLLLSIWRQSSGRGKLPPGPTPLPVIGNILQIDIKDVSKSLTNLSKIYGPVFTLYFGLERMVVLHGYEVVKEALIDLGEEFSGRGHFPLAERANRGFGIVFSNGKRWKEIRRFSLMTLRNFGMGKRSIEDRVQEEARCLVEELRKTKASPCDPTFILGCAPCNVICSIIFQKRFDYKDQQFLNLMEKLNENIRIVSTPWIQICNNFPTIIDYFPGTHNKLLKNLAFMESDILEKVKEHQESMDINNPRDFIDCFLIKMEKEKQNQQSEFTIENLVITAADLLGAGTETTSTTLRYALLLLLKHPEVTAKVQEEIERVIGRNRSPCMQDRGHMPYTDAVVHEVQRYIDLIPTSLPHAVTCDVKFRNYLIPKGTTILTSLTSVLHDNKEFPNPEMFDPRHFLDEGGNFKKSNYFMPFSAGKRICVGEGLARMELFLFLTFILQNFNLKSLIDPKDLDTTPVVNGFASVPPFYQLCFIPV
Chain of Cytochrome P450 2D6 (P10635 whole entry, the tested form may be a part): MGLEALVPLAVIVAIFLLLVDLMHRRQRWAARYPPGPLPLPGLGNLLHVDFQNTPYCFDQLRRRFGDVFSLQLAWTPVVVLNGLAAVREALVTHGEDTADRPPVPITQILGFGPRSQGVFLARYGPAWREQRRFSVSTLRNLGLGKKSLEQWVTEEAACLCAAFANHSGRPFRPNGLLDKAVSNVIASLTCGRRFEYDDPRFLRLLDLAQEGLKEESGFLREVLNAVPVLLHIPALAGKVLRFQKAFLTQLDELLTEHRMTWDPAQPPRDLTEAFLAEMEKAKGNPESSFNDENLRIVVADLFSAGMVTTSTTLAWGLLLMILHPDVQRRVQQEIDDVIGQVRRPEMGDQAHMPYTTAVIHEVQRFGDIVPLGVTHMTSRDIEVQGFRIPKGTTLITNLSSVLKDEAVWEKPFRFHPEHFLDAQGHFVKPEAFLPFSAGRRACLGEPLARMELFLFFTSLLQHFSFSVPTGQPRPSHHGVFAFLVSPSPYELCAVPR
Chain of Cytochrome P450 2C9 (P11712 whole entry): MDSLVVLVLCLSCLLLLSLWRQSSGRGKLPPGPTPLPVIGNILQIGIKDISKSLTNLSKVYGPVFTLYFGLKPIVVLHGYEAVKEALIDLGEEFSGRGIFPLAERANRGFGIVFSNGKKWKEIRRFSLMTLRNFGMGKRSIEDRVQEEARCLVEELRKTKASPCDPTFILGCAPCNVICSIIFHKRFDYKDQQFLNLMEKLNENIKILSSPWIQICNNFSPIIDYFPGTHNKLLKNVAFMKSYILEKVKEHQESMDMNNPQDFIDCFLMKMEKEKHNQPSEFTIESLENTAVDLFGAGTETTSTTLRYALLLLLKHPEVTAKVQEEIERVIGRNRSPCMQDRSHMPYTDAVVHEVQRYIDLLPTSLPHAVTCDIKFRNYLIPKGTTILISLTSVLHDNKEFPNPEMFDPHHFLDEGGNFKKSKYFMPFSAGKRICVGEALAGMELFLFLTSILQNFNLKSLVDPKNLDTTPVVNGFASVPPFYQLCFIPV
Chain of Baculoviral IAP repeat-containing protein 2 (Homo sapiens) (Q13490 whole entry, the tested form may be a part): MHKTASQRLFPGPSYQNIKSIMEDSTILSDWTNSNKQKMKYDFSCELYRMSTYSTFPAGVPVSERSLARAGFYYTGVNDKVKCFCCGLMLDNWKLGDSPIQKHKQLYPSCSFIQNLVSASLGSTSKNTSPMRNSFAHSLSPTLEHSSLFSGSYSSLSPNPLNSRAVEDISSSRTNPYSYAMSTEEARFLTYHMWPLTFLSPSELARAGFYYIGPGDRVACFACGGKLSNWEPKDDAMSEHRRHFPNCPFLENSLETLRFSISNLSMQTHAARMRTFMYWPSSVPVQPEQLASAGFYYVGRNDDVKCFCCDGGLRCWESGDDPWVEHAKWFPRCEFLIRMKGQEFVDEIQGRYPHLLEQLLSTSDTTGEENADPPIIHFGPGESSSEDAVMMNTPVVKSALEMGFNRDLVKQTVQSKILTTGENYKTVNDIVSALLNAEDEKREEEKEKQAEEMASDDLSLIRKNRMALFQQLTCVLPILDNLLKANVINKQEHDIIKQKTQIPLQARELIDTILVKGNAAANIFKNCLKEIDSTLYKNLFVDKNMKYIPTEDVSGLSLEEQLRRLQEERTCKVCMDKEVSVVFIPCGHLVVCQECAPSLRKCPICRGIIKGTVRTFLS

SMILES: CN[C@@H](C)C(=O)N[C@H](C(=O)N1CCC[C@H]1C(=O)Nc1cc2c(NCc3ccc(CNc4ncnc5cc(OC)c(NC(=O)[C@@H]6CCCN6C(=O)[C@@H](NC(=O)[C@H](C)NC)C(C)(C)C)cc45)cc3)ncnc2cc1OC)C(C)(C)C
- IC50 (MDA-MB-231 [1]): 4.3 nM

SMILES: CN[C@@H](C)C(=O)N[C@H](C(=O)N1CCC[C@H]1C(=O)Nc1cc2c(N3CCN(c4ncnc5cc(OC)c(NC(=O)[C@@H]6CCCN6C(=O)[C@@H](NC(=O)[C@H](C)NC)C(C)(C)C)cc45)CC3)ncnc2cc1OC)C(C)(C)C
- IC50 (MDA-MB-231 [1]): 2.3 nM

SMILES: CN[C@@H](C)C(=O)N[C@H](C(=O)N1CCC[C@H]1C(=O)Nc1cc2c(NCCCCCCCCNc3ncnc4cc(OC)c(NC(=O)[C@@H]5CCCN5C(=O)[C@@H](NC(=O)[C@H](C)NC)C(C)(C)C)cc34)ncnc2cc1OC)C(C)(C)C
- IC50 (MDA-MB-231 [1]): 0.3 nM
- IC50 (Cytochrome P450 3A4): 430 nM

SMILES: CN[C@@H](C)C(=O)N[C@H](C(=O)N1CCC[C@H]1C(=O)Nc1cc2c(N[C@H]3CC[C@@H](Nc4ncnc5cc(OC)c(NC(=O)[C@@H]6CCCN6C(=O)[C@@H](NC(=O)[C@H](C)NC)C(C)(C)C)cc45)CC3)ncnc2cc1OC)C(C)(C)C
- IC50 (MDA-MB-231 [1]): 5.93 nM
- IC50 (Cytochrome P450 3A4): 5530 nM

SMILES: CN[C@@H](C)C(=O)N[C@H](C(=O)N1CCC[C@H]1C(=O)Nc1cc2c(NC[C@H]3CC[C@H](CNc4ncnc5cc(OC)c(NC(=O)[C@@H]6CCCN6C(=O)[C@@H](NC(=O)[C@H](C)NC)C6CCCCC6)cc45)CC3)ncnc2cc1OC)C1CCCCC1
- IC50 (MDA-MB-231 [1]): 1.03 nM
- IC50 (Cytochrome P450 3A4): 660 nM

SMILES: CN[C@@H](C)C(=O)N[C@H](C(=O)N1CCC[C@H]1C(=O)N(CCc1ccccc1)C(=O)C(F)(F)F)[C@H](C)OCC#CC#CCO[C@H](C)[C@H](NC(=O)[C@H](C)NC)C(=O)N1CCC[C@H]1C(=O)N(CCc1ccccc1)C(=O)C(F)(F)F
- Activity [2]: Toxic

SMILES: CN[C@@H](C)C(=O)N[C@H](C(=O)N1CCC[C@H]1C(=O)Nc1cc2c(Nc3ccc(OCC#CC#CCOc4ccc(Nc5ncnc6cc(OC)c(NC(=O)[C@@H]7CCCN7C(=O)[C@@H](NC(=O)[C@H](C)NC)C(C)(C)C)cc56)cn4)nc3)ncnc2cc1OC)C(C)(C)C
- IC50 (MDA-MB-231 [1]): 34.6 nM

Continued, in another order:

- IC50 (Cytochrome P450 3A4): 860 nM
SMILES: CN[C@@H](C)C(=O)N[C@H](C(=O)N1CCC[C@H]1C(=O)Nc1cc2c(OCC#CCOc3ncnc4cc(OC)c(NC(=O)[C@@H]5CCCN5C(=O)[C@@H](NC(=O)[C@H](C)NC)C(C)(C)C)cc34)ncnc2cc1OC)C(C)(C)C
- IC50 (MDA-MB-231 [1]): 0.4 nM

- IC50 (Cytochrome P450 3A4): < 620 nM
SMILES: CN[C@@H](C)C(=O)N[C@H](C(=O)N1CCC[C@H]1C(=O)Nc1cc2c(NC[C@H]3CC[C@@H](CNc4ncnc5cc(OC)c(NC(=O)[C@@H]6CCCN6C(=O)[C@@H](NC(=O)[C@H](C)NC)C(C)(C)C)cc45)CC3)ncnc2cc1OC)C(C)(C)C
- IC50 (MDA-MB-231 [1]): 0.41 nM

- remaining at 1 h [3]: 64%
- remaining at 1 h [4]: 65%
- remaining at 1 h [5]: 87%
- remaining at 1 h [6]: 62%
SMILES: CN[C@@H](C)C(=O)N[C@H](C(=O)N1CCC[C@H]1C(=O)Nc1cc2c(NCC#CC#CCNc3ncnc4cc(OC)c(NC(=O)[C@@H]5CCCN5C(=O)[C@@H](NC(=O)[C@H](C)NC)C(C)(C)C)cc34)ncnc2cc1OC)C(C)(C)C
- IC50 (MDA-MB-231 [1]): 0.3 nM

- IC50 (Cytochrome P450 3A4): 5650 nM
SMILES: CN[C@@H](C)C(=O)N[C@H](C(=O)N1CCC[C@H]1C(=O)Nc1cc2c(NCCOCCOCCNc3ncnc4cc(OC)c(NC(=O)[C@@H]5CCCN5C(=O)[C@@H](NC(=O)[C@H](C)NC)C(C)(C)C)cc34)ncnc2cc1OC)C(C)(C)C
- IC50 (MDA-MB-231 [1]): 5.04 nM

- IC50 (Cytochrome P450 3A4): 240 nM
- IC50 (Cytochrome P450 1A2): > 50000 nM
- IC50 (Cytochrome P450 2C9): 12600 nM
- IC50 (Cytochrome P450 2C19): > 50000 nM
- IC50 (Cytochrome P450 2D6): Not Active
SMILES: CN[C@@H](C)C(=O)N[C@H](C(=O)N1CCC[C@H]1C(=O)Nc1cc2c(OCC#CC#CCOc3ncnc4cc(OC)c(NC(=O)[C@@H]5CCCN5C(=O)[C@@H](NC(=O)[C@H](C)NC)C(C)(C)C)cc34)ncnc2cc1OC)C(C)(C)C
- IC50 (MDA-MB-231 [1]): 0.2 nM

- IC50 (Cytochrome P450 3A4): 460 nM
SMILES: CN[C@@H](C)C(=O)N[C@H](C(=O)N1CCC[C@H]1C(=O)Nc1cc2c(NC[C@H]3CC[C@H](CNc4ncnc5cc(OC)c(NC(=O)[C@@H]6CCCN6C(=O)[C@@H](NC(=O)[C@H](C)NC)C(C)(C)C)cc45)CC3)ncnc2cc1OC)C(C)(C)C
- IC50 (MDA-MB-231 [1]): 0.31 nM

- IC50 (Cytochrome P450 3A4): 3560 nM
- IC50 (Cytochrome P450 1A2): > 50000 nM
- IC50 (Cytochrome P450 2C9): 43600 nM
- IC50 (Cytochrome P450 2C19): 35700 nM
- IC50 (Cytochrome P450 2D6; read-out: IC50): > 50000 nM
- remaining at 1 h [3]: 86%
- remaining at 1 h [4]: 63%
- remaining at 1 h [5]: 100%
- remaining at 1 h [6]: 94%
- Ki [7]: 64 nM
- fold change (FC) [8]: 10.7
- fold change (FC) [9]: 3.4
- Activity [15]: Dose-dependent effect
- Activity [16]: Dose-dependent effect
- Activity [17]: Dose-dependent effect
SMILES: CN[C@@H](C)C(=O)N[C@H](C(=O)N1CCC[C@H]1C(=O)Nc1cc2c(N[C@H]3CC[C@H](Nc4ncnc5cc(OC)c(NC(=O)[C@@H]6CCCN6C(=O)[C@@H](NC(=O)[C@H](C)NC)C(C)(C)C)cc45)CC3)ncnc2cc1OC)C(C)(C)C
- IC50 (MDA-MB-231 [1]): 0.14 nM
- IC50 (MDA-MB-468): 27.8 nM
- IC50 (MCF7): 19.2 nM
- IC50 (OVCAR-3): 0.2 nM
- IC50 (BXPC-3): 0.2 nM
- IC50 (PANC-1): 0.9 nM
- IC50 (MIA PaCa-2): 0.1 nM
- IC50 (J82): 17.4 nM
- IC50 (HS27): > 10000 nM
- Activity [10]: Non-Toxic
- Activity (MDA-MB-231 [11]): Active
- viability at 0.001 µM (MDA-MB-231 [12]): 67%
- viability at 0.002 µM (MDA-MB-231 [13]): 42%
- viability at 0.005 µM (MDA-MB-231 [14]): 30%
